Laboratory results: patent publication US20220409573A1, “Hippocampus Regeneration And Memory Recovery” (INNOBIOSCIENCE, LLC, priority 2021, published 2022)

How the values were obtained:
[1] = tested on: Wnt/β-catenin pathway in hippocampal neurons; assay: Wnt/β-catenin pathway activation in cultured hippocampal neurons (western blot, immunofluorescence); type: cell-based, rat
Experimental: Primary culture of rat hippocampal neurons. Rat hippocampal cultures were prepared as previously described (Arrazola et al, 2009). On day 3 of culture, hippocampal cells were treated with […] 1-b-Darabinofuranosylcytosine (AraC) during 24 h to reduce the number of proliferating non-neuronal cells. […] PCR-ARRAY. RNA from hippocampal neurons was extracted using Trizol. Quantification and purity of RNA preparations were checked by absorbance using Nanodrop ND-2000. Only preparations with a 260/280 nm ratio≥1.8, a 260/230 nm ratio ≥1,7 and no sign of RNA degradations, verified by agarose gel electrophoresis with Gel Red TM were used. Genomic DNA was degraded. Using RT2First-Strand cDNA Synthesis kit (SuperArray), 1 μg total RNA was reverse transcribed and then real-time PCR was performed by adding cDNA directly to PCR Master Mix, containing SYBR Green and ROX. The mixtures were then aliquoted into a 96-well PCR array plates, which profiles the expression of 84 Wnt target genes from rat. The PCR was run on ABI StepOnePlus, with 1 cycle of 10 min at 95° C. followed by 40 cycles of 15 s at 95° C. and 1 min at 60° C. Cycle threshold (Ct) values were calculated for all the genes present on the array (Schmittgen & Livak, 2008).
Treatment of neuronal cultures. Primary hippocampal cultures of neurons 14 DIV were washed twice in neurobasal medium and maintained for 1 hour.
Nuclear and cytoplasmatic extraction. Following a time-course treatment, neurons were washed with cold PBS and harvested in 600 μL of cold homogenization buffer (10 mM HEPES pH 7,9; 1,5 mM MgCl2; 10 mM KCl; 1 mM DTT). The cells were disrupted by 20 passed, back and forth, through a syringe of 1 mL. Lysates were centrifuged for 6 minutes at 700 g at 4° C. and the supernatant was removed. The precipitate was washed in 100 μL of buffer (20 mM HEPES pH=7,9; 420 mM NaCl; 1,5 mM MgCl2; 0,2 mM EDTA; 1 mM DTT; 25% glicerol) and centrifuged again to generate nuclear fraction. Cytosolic fractions were generated from the supernatantat 100.000 g for 1 h at 4° C. Both buffers were supplemented with protease inhibitors and serine-phosphatase. Nuclear and cytosolic fractions were subsequently subjected to western blotting.
(§1) Immunoblotting. The samples were dissected on ice and immediately frozen in liquid nitrogen or processed has previously detailed (Inestrosa et al, 2011). Briefly, tissues were homogenized in RIPA buffer (10 mM Tris-Cl, pH 7.4, EDTA 5 mM, 1% NP-40, 1% sodium deoxycholate, and 1% SDS) supplemented with a protease inhibitor mixture (1 mM PMSF, 2 μg/mL aprotinin, 1 μg/mL pepstatin and 10 μg/mL benzamidine) and phosphatase inhibitors (25 mMNaF, 100 mM Na3VO4, 1 mM EDTA and 30 μM Na4P207) using a Potter homogenizator and then passed sequentially through different caliber syringes. Protein samples were centrifuged at 14000 rpm at 4° C. twice for 15 min. Protein concentration was determined using the BCA Protein Assay Kit (Pierce). Samples were resolved by 12% SDS-PAGE were resolved by 10% SDS-PAGE and transferred to a PVDF membrane. The reactions were followed by incubation with anti-mouse, anti-goat or anti-rabbit IgG peroxidase conjugated (Pierce, Rockford, Ill.) and developed using an ECL kit (Western Lightning Plus ECL, PerkinElmer).
Immunofluorescence. Hippocampal neurons were seeded onto poly-L-lysine-coated cover slips in 24-well culture plates at a density of 5×10^4 cellsper well, as described previously (Arrazola et al, 2009; Chacon et al, 2008). A mouse monoclonal anti-b-catenin was used. Cells were extensively washed with PBS and then incubated with Alexa 488-conjugated anti-mouse IgG for 1 h at room temperature. Cells were mounted in mounting medium and analyzed in a Carl-Zeiss Confocal Laser Microscope.

[2] = tested on: Wnt/β-catenin pathway in hippocampal slices; assay: β-catenin, GSK-3β and Dvl-3 western blot in hippocampal slices of wild-type mice; type: cell-based
Experimental: Slice preparation. […] Transverse slices (250-300 μm) from the dorsal hippocampus were cut under oxygen-saturated cold artificial cerebrospinal fluid using a Vibroslice microtome (VSL, World Precision Instruments, Inc WPI, Sarasota, Fla.). After obtained, slices were incubated in ACSF for at least than one hour at room temperature, in order to stabilize activity.
as §1, with “The samples were dissected on ice and immediately frozen in liquid nitrogen or processed has previously detailed (Inestrosa et al, 2011).” left out, “Protein samples were centrifuged at 14000 rpm at 4° C. twice for 15 min.” left out, “Samples were resolved by 12% SDS-PAGE were resolved by 10% SDS-PAGE and transferred to a PVDF membrane.” left out

[3] = different concentrations for 6 h, 14 DIV neurons

With C=C1CC[C@@H]2C(C)(CO)[C@H](O)CC[C@@]2(C)C1C/C=C1/C(=O)OC[C@H]1O (stereo in doubt) [ANDRO, 3-(2-(Decahydro-6-hydroxy-5-(hydroxymethyl)-5,8a-dimethyl-2-methylenenaphthyl)ethylidene)dihydro-4-hydroxyfuran-2(3H)-one] the “β-catenin levels by immunofluorescence” value ([1]; 5 μM for 6 h, 14 DIV neurons) was “increased β-catenin levels”, the “time of peak accumulation of cytoplasmic and nuclear β-catenin” value ([1]; ANDRO 10 μM time course) was 9 h and the “time of maximum increase of the inhibited form of GSK-3β” value ([1]; ANDRO 10 μM time course, cytoplasmic fraction) was 6 h. For the same compound, the “accumulation of β-catenin (western blot)” value [1, 3] was “accumulation of β-catenin in a concentration-dependent manner”, the “active form of GSK-3β (phosphor-Tyr-216)” value [1, 3] was “decrease in the active form” and the “inhibited form of GSK-3β (phospho-Ser-9)” value [1, 3] was “increase in the inhibited form of the enzyme”. The “time at which total levels of β-catenin increased” value ([2]; 5 μM ANDRO, Wnt3a conditioned medium or 10 nM 6-BIO, up to 1 h) was 15 min, the “rate of increase of GSK3β Ser-9 and decrease of Tyr-216 phosphorylation” value ([2]; compared to Wnt-3a treatment) was “faster” and the “mobility shift (phosphorylation) of Dvl-3” value ([2]; hippocampal slices, 1 h) was “does not induce a mobility shift of Dvl-3”.
